Data set [1] can be described thus: Retention time of the compound by chromatography. Format: physicochemical.
Data set [2] in a line: Binding affinity to Bcl-xL (unknown origin). On the set-up: species or system Homo sapiens.
In data set [3] the test system is HepG2. Description: Anticancer activity against human HepG2 cells assessed as cell viability after 48 hrs by MTT assay. It counts as functional, cell-based. Particulars: HepG2, 48 h. For orientation: Tetrazolium dyes change colour on reduction, which living cells bring about.
The next data set addresses Interleukin-2 (Homo sapiens, UniProt P60568). Description: Binding affinity to IL-2 (unknown origin).
The target of another data set is Tumor necrosis factor (Homo sapiens, UniProt P01375). Description: Binding affinity to TNF-alpha (unknown origin).
Data set [4] has as its system HepG2. Description: Anticancer activity against human HepG2 cells assessed as cell viability after 24 hrs by MTT assay. It counts as functional, cell-based. To be noted: HepG2, 24 h.

For 23 molecules, Retention_time, Kd and IC50 results are on record in ChEMBL document CHEMBL3286146, “Prediction of anti-tumor chemical probes of a traditional Chinese medicine formula by HPLC fingerprinting combined with molecular docking” (Eur J Med Chem, 2014).

Structures are written as SMILES. Bounds are passed on as bounds.

As usually defined, the Kd is the free concentration of one partner at which half of the binding sites on the other are occupied at equilibrium, for simple one-to-one binding. High values mean a looser complex, low ones a tighter complex. The term IC50 denotes the concentration at which inhibition is half-maximal.

Tumor necrosis factor, sequence (P01375 whole entry): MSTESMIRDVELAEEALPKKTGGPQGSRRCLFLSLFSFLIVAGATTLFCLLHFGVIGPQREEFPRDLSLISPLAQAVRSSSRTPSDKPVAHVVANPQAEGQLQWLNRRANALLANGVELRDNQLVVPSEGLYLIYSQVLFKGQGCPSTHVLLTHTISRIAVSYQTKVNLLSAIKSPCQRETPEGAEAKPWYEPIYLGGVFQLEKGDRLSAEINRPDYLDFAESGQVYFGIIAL
Interleukin-2, sequence (P60568 whole entry): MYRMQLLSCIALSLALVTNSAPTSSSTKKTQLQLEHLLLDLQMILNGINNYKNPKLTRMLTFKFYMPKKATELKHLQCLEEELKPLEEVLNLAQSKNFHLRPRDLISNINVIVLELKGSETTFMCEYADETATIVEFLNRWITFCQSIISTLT

`CC(C)(O)[C@@H]1CC[C@](C)([C@H]2[C@@H](O)C[C@@]3(C)[C@@H]4C[C@H](O[C@@H]5O[C@H](CO)[C@@H](O)[C@H](O)[C@H]5O)[C@H]5C(C)(C)[C@@H](O[C@@H]6OC[C@@H](O)[C@H](O)[C@H]6O)CC[C@@]56C[C@@]46CC[C@]23C)O1`: the Retention_time in data set [1] is given as 28.6 min. For the same molecule, the Kd in data set [2] came out at 0.126 nM. Moreover, in the data set with HepG2 [3], the 50% inhibitory concentration (IC50) is more than 100000 nM.
For the molecule `C/C=C1\[C@H](O[C@@H]2O[C@H](CO)[C@@H](O)[C@H](O)[C@H]2O)OC=C(C(=O)OC)[C@H]1CC(=O)OC[C@H]1O[C@@H](OCCc2ccc(O)cc2)[C@H](O)[C@@H](O)[C@@H]1O`, the Retention_time in data set [1] was 13.5 min. Further, the Kd in data set [2] amounted to 2.4 nM; at Interleukin-2 it was 2.59 nM. The IC50 with HepG2 [3] is more than 100000 nM.
In data set [1], `COc1ccc(-c2coc3cc(O[C@@H]4O[C@H](CO)[C@@H](O)[C@H](O)[C@H]4O)ccc3c2=O)cc1O` registered a Retention_time of 26.4 min. Also, the values for the Kd (in data set [2]; at Interleukin-2; at Tumor necrosis factor) were 110 nM, 35.6 nM and 1820 nM, respectively. The IC50 in the data set with HepG2 [3] is more than 100000 nM.
In data set [1], `C[C@@H]1CC[C@@]2(OC1)O[C@H]1C[C@H]3[C@@H]4CC=C5C[C@@H](O[C@@H]6O[C@H](CO)[C@@H](O)[C@H](O[C@@H]7O[C@H](CO)[C@@H](O)[C@H](O)[C@H]7O)[C@H]6O)CC[C@]5(C)[C@H]4CC[C@]3(C)[C@H]1[C@@H]2C` yielded a Retention_time of 16.9 min.
`O=C(NS(=O)(=O)c1ccc(NCCSc2ccccc2)c([N+](=O)[O-])c1)c1ccc(-c2ccc(F)cc2)cc1` showed an equilibrium dissociation constant (Kd) in data set [2] of 810 nM.
For the molecule `CC(=O)O[C@H]1CC[C@]2(C)[C@H]3CC=C4[C@@H]5CC(C)(C)CC[C@]5(C(=O)O)CC[C@@]4(C)[C@]3(C)CC[C@H]2C1(C)C` [ACETYL OLEANOLIC ACID], in data set [1], the Retention_time was determined as 39.8 min. The half-inhibitory concentration (IC50) in the data set on HepG2 [3] is more than 100000 nM.
`O=c1cc(-c2ccc(O)cc2)oc2cc(O[C@@H]3O[C@H](CO)[C@@H](O)[C@H](O)[C@H]3O)cc(O)c12` [APIGETRIN]: the Retention_time in data set [1] worked out at 28.6 min. Also, the Kd in data set [2] turned out to be 76.2 nM; on Tumor necrosis factor, 200 nM. The 50% inhibitory concentration (IC50) with HepG2 [4] came out at 90600 nM.
`COc1ccc(-c2coc3cc(O)ccc3c2=O)cc1O` [CALYCOSIN]: in data set [1], the Retention_time is reported as 34.5 min. Also, in the data set on HepG2 [3], the half-maximal inhibitory concentration (IC50) is more than 100000 nM.
`O=c1c(-c2ccc(O)cc2)coc2cc(O[C@@H]3O[C@H](CO)[C@@H](O)[C@H](O)[C@H]3O)ccc12` [DAIDZIN] gave a Retention_time in data set [1] of 8.61 min. The same molecule gave a Kd at Interleukin-2 of 3380 nM. In the data set with HepG2 [4], the IC50 was 61200 nM.
Turning to `C[C@@H]1CC[C@@]2(OC1)O[C@H]1C[C@H]3[C@@H]4CC=C5C[C@@H](O[C@@H]6O[C@H](CO)[C@@H](O)[C@H](O)[C@H]6O)CC[C@]5(C)[C@H]4CC[C@]3(C)[C@H]1[C@@H]2C` [DISOGLUSIDE], binding at Interleukin-2 was characterised by a dissociation constant (Kd) of 0.0289 nM. Besides, the IC50 in the data set on HepG2 [4] was 30300 nM.
Regarding `COc1cccc2c1C(=O)c1c(O)c3c(c(O)c1C2=O)C[C@@](O)(C(=O)CO)C[C@@H]3O[C@H]1C[C@H](N)[C@H](O)[C@H](C)O1` [DOXORUBICIN], the IC50 in the data set with HepG2 [4] worked out at 12500 nM.
Take `COc1ccc(-c2coc3cc(O)ccc3c2=O)cc1` [FORMONONETIN]: the Retention_time in data set [1] came out at 48.5 min. For the same molecule, the results for the equilibrium dissociation constant (Kd) (in data set [2]; at Interleukin-2) were 7750 nM and 5470 nM, respectively. Further, the IC50 in the data set on HepG2 [4] amounted to 60500 nM.
As to `O=c1cc(-c2ccc(O)c(O)c2)oc2cc(O[C@@H]3O[C@H](CO)[C@@H](O)[C@H](O)[C@H]3O)cc(O)c12` [GALUTEOLIN], the Retention_time in data set [1] was 31.2 min. Besides, the Kd in data set [2] was determined as 9.89 nM; on Interleukin-2, 20 nM; at Tumor necrosis factor it was 790 nM. In addition, in the data set with HepG2 [4], the half-inhibitory concentration (IC50) turned out to be 20800 nM.
Consider `C[C@H](CC(=O)C[C@@H](C)[C@H]1C[C@H](O)[C@@]2(C)C3=C(C(=O)C[C@]12C)[C@@]1(C)CCC(=O)C(C)(C)[C@@H]1C[C@@H]3O)C(=O)O` [GANODERIC ACID A], for which the Retention_time in data set [1] was found to be 50.4 min. At Tumor necrosis factor, this molecule came in with a Kd of 8.53 nM. Besides, the concentration for half-maximal inhibition (IC50) with HepG2 [3] is 38700 nM.
The molecule `CC(CC(=O)C[C@@H](C)[C@H]1CC(=O)[C@@]2(C)C3=C(C(=O)C[C@]12C)[C@@]1(C)CC[C@H](O)C(C)(C)[C@@H]1C[C@@H]3O)C(=O)O` (stereo partly specified) [GANODERIC ACID B] displayed a Retention_time in data set [1] of 47.5 min. Binding at Tumor necrosis factor was characterised by a dissociation constant (Kd) of 8.81 nM. The IC50 with HepG2 [3] is 97400 nM.
The molecule `C[C@H](CC(=O)C[C@@H](C)[C@H]1C[C@H](O)[C@@]2(C)C3=C(C(=O)C[C@]12C)[C@@]1(C)CC[C@H](O)C(C)(C)[C@@H]1C[C@@H]3O)C(=O)O` [GANODERIC ACID C2] gave a Retention_time in data set [1] of 49.8 min. For the same molecule, on Tumor necrosis factor, the dissociation constant (Kd) came to 8.39 nM. In the data set on HepG2 [3], the 50% inhibitory concentration (IC50) was more than 100000 nM.
`CC(CC(=O)C[C@@H](C)[C@H]1CC(=O)[C@@]2(C)C3=C(C(=O)C[C@]12C)[C@@]1(C)CCC(=O)C(C)(C)[C@@H]1C[C@@H]3O)C(=O)O` (stereo partly specified) [GANODERIC ACID D] returned a Retention_time in data set [1] of 45.7 min. Moreover, on Tumor necrosis factor, the Kd was 18.6 nM. In addition, the half-inhibitory concentration (IC50) with HepG2 [3] stood at 22900 nM.
With `CC(=O)O[C@@H]1C(=O)C2=C(C(=O)C[C@H]3C(C)(C)C(=O)CC[C@]23C)[C@]2(C)C(=O)C[C@H]([C@H](C)CC(=O)CC(C)C(=O)O)[C@@]12C` (stereo partly specified) [GANODERIC ACID F], in data set [1], the Retention_time is 54.4 min. Moreover, the Kd at Tumor necrosis factor was 2.69 nM. For the same molecule, in the data set with HepG2 [4], the IC50 worked out at 19600 nM.
In turn, `CC(CC(=O)C[C@@H](C)[C@H]1CC(=O)[C@@]2(C)C3=C(C(=O)[C@@H](O)[C@]12C)[C@@]1(C)CC[C@H](O)C(C)(C)[C@@H]1C[C@@H]3O)C(=O)O` (stereo partly specified) [GANODERIC ACID G] displayed a Retention_time in data set [1] of 46.5 min. Moreover, in the data set on HepG2 [3], the IC50 came to 85600 nM.
On to `CC(=O)O[C@@H]1C(=O)C2=C(C(=O)C[C@H]3C(C)(C)[C@@H](O)CC[C@]23C)[C@]2(C)C(=O)C[C@H]([C@H](C)CC(=O)CC(C)C(=O)O)[C@@]12C` (stereo partly specified) [GANODERIC ACID H], for which the Retention_time in data set [1] is listed as 51.1 min. Besides, the dissociation constant (Kd) at Tumor necrosis factor was found to be 2.45 nM. Also, the IC50 in the data set on HepG2 [3] amounted to 70300 nM.
Taken in the same sequence, the figures for `C[C@H](CCC=C(CO)CO)[C@H]1CC[C@@]2(C)C3=CC[C@H]4C(C)(C)C(=O)CC[C@]4(C)C3=CC[C@]12C` [GANODERIOL F] were 10.3 min, 16.8 nM and 20700 nM.
The molecule `O=c1cc(-c2ccc(O)c(O)c2)oc2cc(O)cc(O)c12` [LUTEOLIN] gave a Retention_time in data set [1] of 38.1 min. The IC50 in the data set with HepG2 [4] was determined as 80800 nM.
As for `COc1ccc(-c2coc3cc(O[C@@H]4O[C@H](CO)[C@@H](O)[C@H](O)[C@H]4O)ccc3c2=O)cc1` [ONONIN], the Retention_time in data set [1] came out at 39.3 min. Moreover, the results for the Kd (in data set [2]; on Interleukin-2) were 170 nM and 120 nM, respectively. Further, the concentration for half-maximal inhibition (IC50) with HepG2 [3] is 40800 nM.
